Source: patent US6632981B1, “DNA sequences encoding polypeptides having beta-1,3-glucanase activity” (Novartis Finance Corporation, priority 1988, dated 2003)

Key:
chimeric PR-1a/GUS gene [1] = assay: Chemical induction of chimeric PR-1a/GUS gene in transgenic tobacco plants, β-glucuronidase assay of leaf extracts; assay type: in vivo, Nicotiana tabacum
Experimental: A. Gene expression is induced in plants obtained according to previously described procedures by applying a fine spray of a solution of 0.1 to 50 mM salicylic acid which has been adjusted to a pH between 6.0 and 8.0 with NaOH, to the leaves using a plant mister.
The plants are allowed to continue to grow for two days and are then harvested, frozen in liquid nitrogen and stored at −80° C. until they are assayed as described in Example 65 and/or Example 66.
B. Alternatively, the following solutions are used for induction:
(§1) (3) Methyl benzo-1,2,3-thiadiazole-7-carboxylate. The solution is made by resuspending a wettable powder containing the chemical in sterile water for several minutes at a concentration of 1 mg/ml. Insoluble solid is removed from the solution by filter sterilizing.
Frozen leaf tissue is ground in a mortar with a pestle in the presence of liquid nitrogen to produce a fine powder. Leaf extracts are prepared by mixing a given weight (g) with an equal volume (ml) of GUS extraction buffer (50 mM sodium phosphate buffer pH 7.0, 0.1% Triton-X 100, 0.1% sarkosyl, 10 mM β-mercaptoethanol) as described by Jefferson, R. A. et al., Proc. Natl. Acad. Sci. USA 83: 8447-8451 (1986).
The reactions are carried out in the wells of ELISA plates by mixing 5-25 l extract with 120-100 l GUS assay buffer (50 mM sodium phosphate buffer pH 7.0, 0.1% Triton X-100, 10 mM β-mercaptoethanol) containing 4-methyl umbelliferyl glucuronide (MU) at a final concentration of 2 mM in a total volume of 125 l. The plate is incubated at 37° C. for 1-5 hours and the reaction is stopped by the addition of 150 l 3 M Na2CO3. The concentration of fluorescent indicator released is determined by reading the plate on a Flow Labs Fluoroskan II ELISA plate reader.

endogenous PR-1a gene = assay: Assay for chemical induction of the endogenous PR-1a gene (mRNA, primer extension); assay type: in vivo; conditions: tobacco plant materials, control procedure
Experimental: 50 g of total RNA is lyophilized in a 500 l Eppendorf tube. The RNA is resuspended in 30 l of radiolabeled probe solution and heated to 70′ C. for 10 minutes. The tube is slowly cooled to 37° C. and allowed to incubate overnight. Without removing the tube from the 37° C. water bath, 2 l of 10×reverse-transcriptase buffer (500 mM Tris-HCl, pH 7.5, 400 mM KCl, 30 mM MgCl2), 1 l 5 mg/ml bovine serum albumin, 5 l 100 mM dithiothreitol, 5 l 10×dNTPs (10 mM of each dNTP in H2O), 3 l H 20, 2 l RNasin (80 units), and 2 l reverse transcriptase (400 units) are added and the reaction is incubated at 37° C. for 30 minutes. To stop the reaction, 5 l of 3 M sodium acetate, pH 5, and 150 l absolute ethanol are added. The tube is left at −20° C. for 30 minutes, the precipitate is collected by centrifugation, washed with 80% ethanol and allowed to air-dry. The precipitate is resuspended in 10-20 l of loading dye (90% formamide, 0.05% bromophenol blue, 0.05% xylene cyanol, 1 mM EDTA) and the extension products are separated on a 6% sequencing gel (Maniatis, T. et al., supra). Extension products are visualized by autoradiography.
As a control procedure, tobacco plant materials induced as described in Examples 139-141 by salicylic acid, methyl benzo-1,2,3-thiadiazole-7-carboxylate and TMV are assayed for transcription of mRNA from the endogenous PR-1a gene by the methods described in Example 6.

chimeric PR-1a/GUS gene [2] = assay: GUS induction in transformed tobacco callus; assay type: cell-based, Nicotiana tabacum
Experimental: Agrobacterium strains containing the appropriate vectors are used to transform callus forming from the leaf disks (Example 112). Callus forming on kanamycin-containing MSBN selection medium is maintained on a callus growth medium comprised of MS major, minor salts and Fe-EDTA (Gibco #500-1117; 4.3 g/l), MS vitamins, 100 mg/l myo-inositol, 20 g/l sucrose, 2 mg/l naphthaleneacetic acid and 0.3 mg/l kinetin.
The callus can be used to regenerate transgenic plants by transferring callus pieces to MSBN medium and following methods described in Examples 111 and 112. The callus is also used to measure gene induction following application of inducing chemicals and to screen for gene inducing chemicals.
A. Callus obtained according to previously described procedures is assayed for chemical induction by applying with a sterile paint brush or a plant mister a filter sterilized solution of 0.1 to 50 mM salicylic acid which has been adjusted to a pH between 6.0 and 8.0 by the addition of NaOH. […]
as §1
Frozen leaf tissue is ground in a mortar with a pestle in the presence of liquid nitrogen to produce a fine powder. […]
The reactions are carried out in the wells of ELISA plates by mixing 5-25 l extract with 120-100 l GUS assay buffer (50 mM sodium phosphate buffer pH 7.0, 0.1% Triton X-100, 10 mM β-mercaptoethanol) containing 4-methyl umbelliferyl glucuronide (MU) at a final concentration of 2 mM in a total volume of 125 l. […] The concentration of fluorescent indicator released is determined by reading the plate on a Flow Labs Fluoroskan II ELISA plate reader. […]

[3] = tobacco plant Alu 1 (CIB272), water 5.6, buffer 20.5
[4] = tobacco plant Alu 2 (CIB272), water 2.0, buffer 8.9
[5] = tobacco plant Alu 3 (CIB272), water 0.1, buffer 2.0
[6] = tobacco plant Alu 4 (CIB272), water 2.1, buffer 6.1
[7] = tobacco plant Alu 5 (CIB272), water 0.6, buffer 0.5
[8] = tobacco plant Alu 6 (CIB272), water 0.8, buffer 3.1
[9] = tobacco plant Alu 7 (CIB272), water 1.7, buffer 21.7
[10] = tobacco plant Alu 8 (CIB272), water 0.6, buffer 0.6
[11] = tobacco plant Alu 9 (CIB272), water 0.9, buffer 0.3
[12] = tobacco plant Alu 10 (CIB272), water 4.0, buffer 8.1
[13] = tobacco plant Alu 11 (CIB272), water 1.6, buffer 2.2
[14] = tobacco plant Alu 12 (CIB272), water 0.7, buffer 2.3
[15] = tobacco plant Alu 13 (CIB272), water 0.1, buffer 1.9
[16] = tobacco plant H 1 (CIB271), water 5.39, buffer 20.1
[17] = tobacco plant H 3 (CIB271), water 0.21, buffer 1.66
[18] = tobacco plant H 4 (CIB271), water 8.39, buffer 2.28
[19] = tobacco plant H 6 (CIB271), water 0.10, buffer 0.09
[20] = tobacco plant H 9 (CIB271), water 0.23, buffer 0.5
[21] = tobacco plant Hae 1 (CIB273), water 0.6, buffer 1.7
[22] = tobacco plant Hae 2 (CIB273), water 2.3, buffer 0.4
[23] = tobacco plant Hae 3 (CIB273), water 1.7, buffer 3.0
[24] = tobacco plant Hae 4 (CIB273), water 2.0, buffer 1.7
[25] = tobacco plant Hae 5 (CIB273), water 18.1, buffer 36.6
[26] = tobacco plant Hae 8 (CIB273), water 0.4, buffer 0.6
[27] = tobacco plant Hae 9 (CIB273), water 2.6, buffer 12.5
[28] = tobacco plant Hae 10 (CIB273), water 1.6, buffer 13.5
[29] = tobacco plant Hae 11 (CIB273), water 2.6, buffer 3.9
[30] = tobacco plant Hae 12 (CIB273), water 0.2, buffer 0.6
[31] = tobacco plant Hae 13 (CIB273), water 0.01, buffer nd
[32] = tobacco plant Hae 14 (CIB273), water 0.1, buffer 0.1
[33] = tobacco plant Hae 15 (CIB273), water 0.1, buffer 3.4
[34] = tobacco plant Hae 16 (CIB273), water 0.1, buffer 0.8

SMILES | Specific Activity nKat MU/mg protein (chimeric PR-1a/GUS gene [1]; [3]) [nKat MU/mg protein] | Specific Activity nKat MU/mg protein (chimeric PR-1a/GUS gene [1]; [4]) [nKat MU/mg protein] | Specific Activity nKat MU/mg protein (chimeric PR-1a/GUS gene [1]; [5]) | Specific Activity nKat MU/mg protein (chimeric PR-1a/GUS gene [1]; [6]) [nKat MU/mg protein] | Specific Activity nKat MU/mg protein (chimeric PR-1a/GUS gene [1]; [7]) | Specific Activity nKat MU/mg protein (chimeric PR-1a/GUS gene [1]; [8]) [nKat MU/mg protein] | Specific Activity nKat MU/mg protein (chimeric PR-1a/GUS gene [1]; [9]) [nKat MU/mg protein] | Specific Activity nKat MU/mg protein (chimeric PR-1a/GUS gene [1]; [10]) [nKat MU/mg protein] | Specific Activity nKat MU/mg protein (chimeric PR-1a/GUS gene [1]; [11]) [nKat MU/mg protein] | Specific Activity nKat MU/mg protein (chimeric PR-1a/GUS gene [1]; [12]) [nKat MU/mg protein] | Specific Activity nKat MU/mg protein (chimeric PR-1a/GUS gene [1]; [13]) | Specific Activity nKat MU/mg protein (chimeric PR-1a/GUS gene [1]; [14]) [nKat MU/mg protein] | Specific Activity nKat MU/mg protein (chimeric PR-1a/GUS gene [1]; [15]) [nKat MU/mg protein] | Specific Activity nKat MU/mg protein (chimeric PR-1a/GUS gene [1]; [16]) [nKat MU/mg protein] | Specific Activity nKat MU/mg protein (chimeric PR-1a/GUS gene [1]; [17]) [nKat MU/mg protein] | Specific Activity nKat MU/mg protein (chimeric PR-1a/GUS gene [1]; [18]) [nKat MU/mg protein] | Specific Activity nKat MU/mg protein (chimeric PR-1a/GUS gene [1]; [19]) | Specific Activity nKat MU/mg protein (chimeric PR-1a/GUS gene [1]; [20]) [nKat MU/mg protein] | Specific Activity nKat MU/mg protein (chimeric PR-1a/GUS gene [1]; [21]) [nKat MU/mg protein] | Specific Activity nKat MU/mg protein (chimeric PR-1a/GUS gene [1]; [22]) [nKat MU/mg protein] | also measured
COC(=O)c1cccc2nnsc12 [Methyl benzo-1,2,3-thiadiazole-7-carboxylate] | 206.9 | 83.2 | 2.0 ± .9 nKat MU/mg protein | 7.1 ± 2.6 | 1.2 ± .6 nKat MU/mg protein | 67.0 | 29.1 | 0.4 | 0.4 | 52.0 | 2.8 ± 1.3 nKat MU/mg protein | 73.4 | 13.2 | 13.5 ± 0.8 | 11.95 ± 0.85 | 18.52 ± 1.07 | 2.58 ± .01 nKat MU/mg protein | 9.1 | 2.6 | 11.8 | Specific Activity nKat MU/mg protein (chimeric PR-1a/GUS gene [1]; [23]): 11.2 nKat MU/mg protein; Specific Activity nKat MU/mg protein (chimeric PR-1a/GUS gene [1]; [24]): 10.8 nKat MU/mg protein; Specific Activity nKat MU/mg protein (chimeric PR-1a/GUS gene [1]; [25]): 132.5 nKat MU/mg protein; Specific Activity nKat MU/mg protein (chimeric PR-1a/GUS gene [1]; [26]): 28.9 nKat MU/mg protein; Specific Activity nKat MU/mg protein (chimeric PR-1a/GUS gene [1]; [27]): 129.7 nKat MU/mg protein; Specific Activity nKat MU/mg protein (chimeric PR-1a/GUS gene [1]; [28]): 98.2 nKat MU/mg protein; Specific Activity nKat MU/mg protein (chimeric PR-1a/GUS gene [1]; [29]): 58.5 nKat MU/mg protein; Specific Activity nKat MU/mg protein (chimeric PR-1a/GUS gene [1]; [30]): 5.8 nKat MU/mg protein; Specific Activity nKat MU/mg protein (chimeric PR-1a/GUS gene [1]; [31]): 0.1 nKat MU/mg protein; Specific Activity nKat MU/mg protein (chimeric PR-1a/GUS gene [1]; [32]): 8.6 nKat MU/mg protein; Specific Activity nKat MU/mg protein (chimeric PR-1a/GUS gene [1]; [33]): 7.2 nKat MU/mg protein; Specific Activity nKat MU/mg protein (chimeric PR-1a/GUS gene [1]; [34]): 4.3 nKat MU/mg protein; transcription of mRNA from the endogenous PR-1a gene (endogenous PR-1a gene): Elevated levels of mRNA; GUS activities (chimeric PR-1a/GUS gene [2]; tobacco callus transformed with CIB271 (different experiment), 250 g/l spray, 21 hours, H2O spray 2.8): 13.7 nKat MU/mg protein; GUS activities (chimeric PR-1a/GUS gene [2]; tobacco callus transformed with CIB273, 250 g/l spray, 21 hours, H2O spray 0.46): 31.2 nKat MU/mg protein
O=C(O)c1ccccc1O [Salicylic acid, salicylic acid] | 20.0 | 6.6 | 2.8 ± .9 nKat MU/mg protein | 43.0 ± 19 | 4.4 ± 2.3 nKat MU/mg protein | 28.8 | 38.7 | 0.4 | 0.6 | 39.2 | 1.9 ± .9 nKat MU/mg protein | 57.1 ± 22 | 19.1 | 13.9 ± 1.2 | 6.92 ± 0.88 | 27.5 ± 0.7 | 4.08 ± 0.58 nKat MU/mg protein | 10.8 | 1.6 | 8.8 | Specific Activity nKat MU/mg protein (chimeric PR-1a/GUS gene [1]; [23]): 11.1 nKat MU/mg protein; Specific Activity nKat MU/mg protein (chimeric PR-1a/GUS gene [1]; [24]): 8.1 nKat MU/mg protein; Specific Activity nKat MU/mg protein (chimeric PR-1a/GUS gene [1]; [25]): 59.4 nKat MU/mg protein; Specific Activity nKat MU/mg protein (chimeric PR-1a/GUS gene [1]; [26]): 30.6 nKat MU/mg protein; Specific Activity nKat MU/mg protein (chimeric PR-1a/GUS gene [1]; [27]): 63.9 nKat MU/mg protein; Specific Activity nKat MU/mg protein (chimeric PR-1a/GUS gene [1]; [28]): 70.5 nKat MU/mg protein; Specific Activity nKat MU/mg protein (chimeric PR-1a/GUS gene [1]; [29]): 81.8 nKat MU/mg protein; Specific Activity nKat MU/mg protein (chimeric PR-1a/GUS gene [1]; [30]): 2.5 nKat MU/mg protein; Specific Activity nKat MU/mg protein (chimeric PR-1a/GUS gene [1]; [31]): 0.7 nKat MU/mg protein; Specific Activity nKat MU/mg protein (chimeric PR-1a/GUS gene [1]; [32]): 1.8 nKat MU/mg protein; Specific Activity nKat MU/mg protein (chimeric PR-1a/GUS gene [1]; [33]): 6.4 nKat MU/mg protein; Specific Activity nKat MU/mg protein (chimeric PR-1a/GUS gene [1]; [34]): 2.3 nKat MU/mg protein; transcription of mRNA from the endogenous PR-1a gene (endogenous PR-1a gene): Elevated levels of mRNA; GUS activities (chimeric PR-1a/GUS gene [2]; tobacco callus transformed with CIB271, 50 mM spray, harvested 21 hours after treatment, H2O spray 1.8): 3.8 nKat MU/mg protein
